Test results: patent publication US8987242B2, “Morpholinone compounds as factor IXA inhibitors” (Merck Sharp & Dohme Corp., priority 2008, dated 2015)
Structures can show the parent of a compound that is named as a salt. Where two headings read alike, the source gives them in different places.

Molecular target: human factor IXa (Homo sapiens (Human), UniProt P00740)
Assay: Determination of inhibitory activity against factor IXa (SPECTROFLUOR FIXa fluorogenic substrate enzyme assay)
Format: biochemical
Conditions: human factor IXa 2.0 μg/ml, SPECTROFLUOR FIXa 100 μM, 60 minutes at room temperature, pH 8.0
Method: Inhibitory activity against factor IXa was tested using the substrate SPECTROFLUOR FIXa (american diagnostica inc.; 500 West Avenue, Stamford, Conn. 06902 USA; Pr. No. 299F) and human factor IXa (american diagnostica inc.; Pr. No. 449b). Test substances dissolved in buffer A (50 mM α,α,α-tris(hydroxymethyl)methylamine (Tris), 100 mM NaCl, 5 mM CaCl2, 15% (v/v) ethylene glycol, pH 8.0) were mixed with factor IXa (2.0 μg/ml final concentration). The enzyme reaction was started by addition of SPECTROFLUOR FIXa (100 μM final concentration). After incubation for 60 minutes at room temperature, the reaction was stopped by the addition of 20% (v/v) acetic acid solution, and then measured the fluorescence value (Excitation Wavelength: 355 nm, Emission Wavelength; 460 nm) in a microtiter plate reader (ARVO 1420 Multilabel Counter; PerkinElmer).
The IC50 was calculated from a dilution series of the test substance with the aid of the software, Symix Assay Explorer (Symyx Technologies, Inc.).

[1] = read-out: Factor IXa enzyme assay IC50 [micro M]
[2] = read-out: Factor IXa enzyme assay IC50

Chain of human factor IXa (P00740 227-461): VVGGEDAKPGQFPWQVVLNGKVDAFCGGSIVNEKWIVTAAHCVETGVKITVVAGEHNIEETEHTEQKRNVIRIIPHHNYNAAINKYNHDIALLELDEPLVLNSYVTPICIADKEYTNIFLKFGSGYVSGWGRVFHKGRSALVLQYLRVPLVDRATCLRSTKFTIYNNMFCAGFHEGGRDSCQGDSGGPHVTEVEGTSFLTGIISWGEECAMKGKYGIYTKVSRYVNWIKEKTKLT
Chain of human factor IXa (P00740 47-191 partner): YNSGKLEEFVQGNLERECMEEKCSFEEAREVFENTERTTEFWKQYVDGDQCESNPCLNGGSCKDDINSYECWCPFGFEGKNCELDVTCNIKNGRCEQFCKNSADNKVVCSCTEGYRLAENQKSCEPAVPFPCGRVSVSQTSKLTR

Structure (SMILES) | IC50 [1] | IC50 [2]
CC(=O)N1CCN(c2ccc(C)cc2)C(=O)C1C(O)C(=O)Nc1ccc2c(N)nccc2c1 (stereo not shown) [Example 109, 2-[1-acetyl-3-oxo-4-(p-tolyl)piperazin-2-yl]-N-(1-amino-6-isoquinolyl)-2-hydroxy-acetamide trifluoroacetate] | 60 nM | –
Cc1ccc(N2CCO[C@H]([C@@H](O)C(=O)Nc3ccc4c(N)nccc4c3)C2=O)cc1 [Example 62, (2R)—N-(1-aminoisoquinolin-6-yl)-2-hydroxy-2-[(2R)-3-oxo-4-p-tolylmorpholin-2-yl]acetamide hydrochloride] | 20 nM | –
CC(C)(C)c1ccc(N2CCO[C@H]([C@@H](O)C(=O)Nc3ccc(C(=N)N)cc3F)C2=O)cc1 [Example 67, (2R)—N-(4-amidino-2-fluorophenyl)-2-[(2R)-4-(4-tert-butylphenyl)-3-oxomorpholin-2-yl]-2-hydroxyacetamide acetate] | 60 nM | –
N#Cc1ccccc1N1CCO[C@H]([C@@H](O)C(=O)Nc2ccc3c(c2)CNC3=N)C1=O [Example aa142, 4-(2-Cyanophenyl)-N-(2,3-dihydro-1-imino-1h-isoindol-5-yl)-alpha(R)-hydroxy-3-oxo-2(R)-morpholine acetamide] | – | 66 nM
Nc1noc2cc(NC(=O)[C@H](O)[C@H]3OCCN(c4ccc(F)c(C(=O)N5CCOCC5)c4)C3=O)c(F)cc12 [Example aa152, N-(3-Amino-5-fluoro-1,2-benzisoxazol-6-yl)-4-[4-fluoro-3-(4-morpholinylcarbonyl)phenyl]-alpha(R)-hydroxy-3-oxo-2(R)-morpholineacetamide] | – | 1200 nM
Cc1ccc(N2CCOC(C(O)C(=O)Nc3ccc(C(=N)N)cc3)C2=O)cc1 (stereo not shown) [Example 2, N-(4-amidinophenyl)-2-hydroxy-2-(3-oxo-4-p-tolylmorpholin-2-yl)acetamide trifluoroacetate] | 30 nM | –
N=C(N)c1ccc(NC(=O)[C@H](O)[C@H]2OCCN(c3ccc(C4CCCCC4)cc3)C2=O)cc1 [Example 15, (2R)—N-(4-amidinophenyl)-2-[(2R)-4-(4-cyclohexylphenyl)-3-oxomorpholin-2-yl]-2-hydroxyacetamide hydrochloride] | 20 nM | –
Nc1noc2cc(NC(=O)[C@H](O)[C@H]3OCCN(c4ccc(S(F)(F)(F)(F)F)cc4)C3=O)ccc12 [Example aa151, [4-[2(R)-[2-[(3-Amino-1,2-bcnzisoxazol-6-yl)amino]-1(R)-hydroxy-2-oxoethyl]-3-oxo-4-morpholinyl]phenyl] pentafluorosulfur] | – | 380 nM
N=C(N)c1ccc(NC(=O)[C@H](O)[C@H]2OCCN(c3cccc(NC(=O)CO)c3)C2=O)cc1 [Example 50, (2R)—N-(4-amidinophenyl)-2-hydroxy-2-[(2R)-4-[3-[(2-hydroxyacetyl)amino]phenyl]-3-oxomorpholin-2-yl]acetamide hydrochloride] | 20 nM | –
Cc1ccc(N2CCCO[C@H]([C@@H](O)C(=O)Nc3ccc(C(=N)N)cc3)C2=O)cc1 [Example 114, (2R)—N-(4-amidinophenyl)-2-hydroxy-2-[(2R)-3-oxo-4-(p-tolyl)-1,4-oxazepan-2-yl]acetamide hydrochloride] | 30 nM | –
CS(=O)(=O)c1ccccc1-c1ccc(N2CCO[C@H]([C@@H](O)C(=O)Nc3ccc(C(=N)N)cc3)C2=O)cc1 [Example 105, (2R)—N-(4-amidinophenyl)-2-hydroxy-2-[(2R)-4-[4-(2-methylsulfonylphenyl)phenyl]-3-oxomorpholin-2-yl]acetamide hydrochloride] | 10 nM | –
Cc1ccc(N2CCOC(C(O)C(=O)Nc3ccc4c(N)nccc4c3)C2=O)cc1 (stereo not shown) [Example 1, N-(1-aminoisoquinolin-6-yl)-2-hydroxy-2-(3-oxo-4-p-tolylmorpholin-2-yl)acetamide trifluoroacetate] | 40 nM | –
N=C1NCc2cc(NC(=O)[C@H](O)[C@H]3OCCN(c4ccc(F)c(C(=O)N5CCOCC5)c4)C3=O)ccc21 [Example aa144, N-(2,3-Dihydro-1-imino-1h-isoindol-5-yl)-4-[4-fluoro-3-(4-morpholinylcarbonyl)phenyl]-alpha(R)-hydroxy-3-oxo-2(R)-morpholineacetamide] | – | 13 nM
